From ChEMBL document CHEMBL1126278, “New neplanocin analogues. 1. Synthesis of 6'-modified neplanocin A derivatives as broad-spectrum antiviral agents” (J Med Chem, 1992)
≈ marks a conversion by molar mass, not a printed value.

Legend:
Vero [1] = assay: Inhibitory effect on replication of RNA virus RNA synthesis in Vero cell line.; format: functional, cell-based; conditions: Chlorocebus sabaeus
Vero [2] = assay: Inhibitory effect on replication of RNA virus cell morphology in Vero cell line.; format: functional, cell-based; conditions: Chlorocebus sabaeus
PRK [3] = assay: Inhibitory effect on replication of RNA virus cell morphology in PRK cell line.; format: functional, cell-based; conditions: Oryctolagus cuniculus
MT4 [4] = assay: Inhibitory effect on replication of RNA virus cell growth in MT-4 cell line.; format: functional, cell-based; conditions: Homo sapiens
[5] = Inhibitory effect on replication of DNA virus HSV-1 (KOS) in PRK cell line.; format: functional, cell-based; conditions: Oryctolagus cuniculus
HeLa [6] = assay: Inhibitory effect on replication of RNA virus coxsB-4 in HeLa cell line.; format: functional, cell-based; conditions: Homo sapiens
PRK [7] = assay: Inhibitory effect on replication of RNA virus VSV in PRK cell line.; format: functional, cell-based; conditions: Oryctolagus cuniculus
MT4 [8] = assay: Inhibitory effect on replication of RNA virus HIV-2 in MT-4 cell line.; format: functional, cell-based; conditions: Homo sapiens
HEL [9] = assay: Inhibitory effect on replication of DNA virus VZV (YS) on HEL cell line.; format: functional, cell-based; conditions: Homo sapiens
MDCK [10] = assay: cells; conditions: Canis lupus familiaris
HEL [11] = assay: Inhibitory effect on replication of DNA virus TK-VZV (07-1) on HEL cell line.; format: functional, cell-based; conditions: Homo sapiens
Vero [12] = assay: Inhibitory effect on replication of RNA virus TV in Vero cell line.; format: functional, cell-based; conditions: Chlorocebus sabaeus
PRK [13] = assay: Inhibitory effect on replication of DNA virus VV on PRK cell line.; format: functional, cell-based; conditions: Oryctolagus cuniculus
HeLa [14] = assay: Inhibitory effect on replication of RNA virus RSV in HeLa cell line; format: functional, cell-based; conditions: Homo sapiens
Vero [15] = assay: Inhibitory effect on replication of RNA virus measles on Vero cell line.; format: functional, cell-based; conditions: Chlorocebus sabaeus
MDCK [16] = assay: Inhibitory effect on replication of RNA virus cell morphology in MDCK cell line.; format: functional, cell-based; conditions: Canis lupus familiaris
MDCK [17] = assay: cells; conditions: Canis lupus familiaris; remark: listed apart in the source
Vero [18] = assay: Inhibitory effect on replication of RNA virus SFV in Vero cell line; format: functional, cell-based; conditions: Chlorocebus sabaeus
HEL [19] = assay: Inhibitory effect on replication of DNA virus CMV (Davis) on HEL cell line.; format: functional, cell-based; conditions: Homo sapiens
HEL [20] = assay: Inhibitory effect on replication of DNA virus TK-VZV (YSR) on HEL cell line.; format: functional, cell-based; conditions: Homo sapiens
PRK [21] = assay: Inhibitory effect on replication of DNA virus Cell morphology on PRK cell line; format: functional, cell-based; conditions: Oryctolagus cuniculus
Vero [22] = assay: Inhibitory effect on replication of RNA virus protein synthesis in Vero cell line.; format: functional, cell-based; conditions: Chlorocebus sabaeus
Vero [23] = assay: Inhibitory effect on replication of RNA virus PV-3 in Vero cell line.; format: functional, cell-based; conditions: Chlorocebus sabaeus
MT4 [24] = assay: Inhibitory effect on replication of RNA virus HIV-1 in MT-4 cell line.; format: functional, cell-based; conditions: Homo sapiens
Vero [25] = assay: Inhibitory effect on replication of RNA virus SV in Vero cell line.; format: functional, cell-based; conditions: Chlorocebus sabaeus
Vero [26] = assay: Inhibitory effect on replication of RNA virus JV in Vero cell line.; format: functional, cell-based; conditions: Chlorocebus sabaeus
[27] = Inhibitory effect on replication of DNA virus HSV-2 (G) in PRK cell line.; format: functional, cell-based; conditions: Oryctolagus cuniculus
HeLa [28] = assay: Inhibitory effect on replication of RNA virus VSV in HeLa cell line.; format: functional, cell-based; conditions: Homo sapiens
HEL [29] = assay: Inhibitory effect on replication of DNA virus CMV (AD-169) on HEL cell line.; format: functional, cell-based; conditions: Homo sapiens
Vero [30] = assay: Inhibitory effect on replication of RNA virus reo-1 in Vero cell line.; format: functional, cell-based; conditions: Chlorocebus sabaeus
HeLa [31] = assay: cells; conditions: Homo sapiens
HEL [32] = assay: Inhibitory effect on replication of DNA virus VZV (Oka) on HEL cell line.; format: functional, cell-based; conditions: Homo sapiens
HeLa [33] = assay: Inhibitory effect on replication of RNA virus cell morphology in HeLa cell line.; format: functional, cell-based; conditions: Homo sapiens
Vero [34] = assay: Inhibitory effect on replication of RNA virus coxsB-4 in Vero cell line; format: functional, cell-based; conditions: Chlorocebus sabaeus
ESM [35] = assay: Inhibitory effect on replication of RNA virus cell morphology in ESM cell line.; format: functional, cell-based
ESM [36] = assay: Inhibitory effect on replication of DNA virus VV on ESM cell line.; format: functional, cell-based
ESM [37] = assay: Inhibitory effect on replication of DNA virus HSV-1 (KOS) in ESM cell line; format: functional, cell-based
ESM [38] = assay: Inhibitory effect on replication of DNA virus Cell morphology on ESM cell line; format: functional, cell-based
HEL [39] = assay: Inhibitory effect on replication of DNA virus Cell growth on HEL cell line.; format: functional, cell-based; conditions: Homo sapiens
ESM [40] = assay: Inhibitory effect on replication of DNA virus TK-HSV-1 (B2006) on ESM cell line.; format: functional, cell-based
ESM [41] = assay: Inhibitory effect on replication of DNA virus TK-HSV-1 (VMW 1837) on ESM cell line.; format: functional, cell-based
ESM [42] = assay: Inhibitory effect on replication of DNA virus HSV-2 (G) in ESM cell line; format: functional, cell-based

## Nc1ncnc2c1ncn2[C@@H]1C=C(CF)[C@@H](O)[C@H]1O
Vero [1]
  IC50: 5 µg/mL (≈ 18.9 µM)
Vero [2]
  IC50: 40 µg/mL (≈ 151 µM)
PRK [3]
  IC50: > 400 µg/mL
MT4 [4]
  IC50: 3 µg/mL (≈ 11.3 µM)
[5]
  IC50: > 400 µg/mL
HeLa [6]
  IC50: > 200 µg/mL
PRK [7]
  IC50: 0.2 µg/mL (≈ 0.754 µM)
MT4 [8]
  IC50: > 1.5 µg/mL
HEL [9]
  IC50: 150 µg/mL (≈ 566 µM)
MDCK [10]
  IC50: > 100 µg/mL
HEL [11]
  IC50: 20 µg/mL (≈ 75.4 µM)
Vero [12]
  IC50: 0.4 µg/mL (≈ 1.51 µM)
PRK [13]
  IC50: 2 µg/mL (≈ 7.54 µM)
HeLa [14]
  IC50: 10 µg/mL (≈ 37.7 µM)
Vero [15]
  IC50: 10 µg/mL (≈ 37.7 µM)
MDCK [16]
  IC50: > 100 µg/mL
MDCK [17]
  IC50: > 100 µg/mL
Vero [18]
  IC50: 200 µg/mL (≈ 754 µM)
HEL [19]
  IC50: 2.5 µg/mL (≈ 9.43 µM)
HEL [20]
  IC50: 20 µg/mL (≈ 75.4 µM)
PRK [21]
  IC50: > 400 µg/mL
Vero [22]
  IC50: 65 µg/mL (≈ 245 µM)
Vero [23]
  IC50: 7 µg/mL (≈ 26.4 µM)
MT4 [24]
  IC50: > 1.5 µg/mL
Vero [25]
  IC50: 7 µg/mL (≈ 26.4 µM)
Vero [26]
  IC50: 0.4 µg/mL (≈ 1.51 µM)
[27]
  IC50: > 400 µg/mL
HeLa [28]
  IC50: 2 µg/mL (≈ 7.54 µM)
HEL [29]
  IC50: 2.5 µg/mL (≈ 9.43 µM)
Vero [30]
  IC50: 2 µg/mL (≈ 7.54 µM)
HeLa [31]
  IC50: > 200 µg/mL
HEL [32]
  IC50: 70 µg/mL (≈ 264 µM)
HeLa [33]
  IC50: > 200 µg/mL
Vero [34]
  IC50: > 200 µg/mL

## C[C@H](O)C1=C[C@@H](n2cnc3c(N)ncnc32)[C@H](O)[C@@H]1O
Vero [1]
  IC50: 36 µg/mL (≈ 130 µM)
Vero [2]
  IC50: > 400 µg/mL
PRK [3]
  IC50: > 400 µg/mL
ESM [35]
  IC50: > 400 µg/mL
MT4 [4]
  IC50: > 100 µg/mL
[5]
  IC50: > 400 µg/mL
HeLa [6]
  IC50: > 400 µg/mL
PRK [7]
  IC50: 70 µg/mL (≈ 252 µM)
MT4 [8]
  IC50: > 100 µg/mL
ESM [36]
  IC50: 40 µg/mL (≈ 144 µM)
ESM [37]
  IC50: > 400 µg/mL
MDCK [10]
  IC50: > 100 µg/mL
ESM [38]
  IC50: > 400 µg/mL
HEL [11]
  IC50: 76 µg/mL (≈ 274 µM)
Vero [12]
  IC50: 55 µg/mL (≈ 198 µM)
PRK [13]
  IC50: 70 µg/mL (≈ 252 µM)
HeLa [14]
  IC50: > 100 µg/mL
Vero [15]
  IC50: > 100 µg/mL
MDCK [16]
  IC50: > 100 µg/mL
MDCK [17]
  IC50: > 100 µg/mL
HEL [39]
  IC50: 132 µg/mL (≈ 476 µM)
Vero [18]
  IC50: > 400 µg/mL
ESM [40]
  IC50: > 400 µg/mL
ESM [41]
  IC50: > 400 µg/mL
ESM [42]
  IC50: > 400 µg/mL
HEL [19]
  IC50: 9 µg/mL (≈ 32.5 µM)
HEL [20]
  IC50: 39 µg/mL (≈ 141 µM)
PRK [21]
  IC50: > 400 µg/mL
Vero [22]
  IC50: > 190 µg/mL
Vero [23]
  IC50: 100 µg/mL (≈ 361 µM)
MT4 [24]
  IC50: > 100 µg/mL
Vero [25]
  IC50: 150 µg/mL (≈ 541 µM)
Vero [26]
  IC50: 45 µg/mL (≈ 162 µM)
[27]
  IC50: > 200 µg/mL
HEL [29]
  IC50: 15 µg/mL (≈ 54.1 µM)
Vero [30]
  IC50: 40 µg/mL (≈ 144 µM)
HeLa [31]
  IC50: > 400 µg/mL
HEL [32]
  IC50: 100 µg/mL (≈ 361 µM)
HeLa [33]
  IC50: > 400 µg/mL
Vero [34]
  IC50: > 200 µg/mL
